Measurements as given in ChEMBL document CHEMBL4507291 (2021).

What was measured:
[1] = molecular target: T1, Serine/threonine-protein kinase 4 (Homo sapiens) (UniProt Q13043); experiment: STK4 (MST1) Kinase screen; details: Compound concentration 1.0 uM
T1 sequence (whole entry): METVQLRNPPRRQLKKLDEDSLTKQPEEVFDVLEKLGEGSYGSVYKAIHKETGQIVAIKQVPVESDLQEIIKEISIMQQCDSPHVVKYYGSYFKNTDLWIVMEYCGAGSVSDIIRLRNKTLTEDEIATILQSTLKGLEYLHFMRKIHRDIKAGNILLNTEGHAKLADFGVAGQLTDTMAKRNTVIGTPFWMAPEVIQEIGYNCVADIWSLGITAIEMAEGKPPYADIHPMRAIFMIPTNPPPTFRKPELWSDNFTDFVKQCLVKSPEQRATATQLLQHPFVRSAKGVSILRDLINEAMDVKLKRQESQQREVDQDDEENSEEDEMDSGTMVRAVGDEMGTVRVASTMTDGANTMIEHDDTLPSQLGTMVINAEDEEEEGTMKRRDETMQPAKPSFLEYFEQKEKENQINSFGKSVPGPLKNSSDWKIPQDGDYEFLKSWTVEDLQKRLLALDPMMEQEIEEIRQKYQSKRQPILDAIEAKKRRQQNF

[2] = molecular target: Maternal embryonic leucine zipper kinase (Homo sapiens) (UniProt Q14680); experiment: MELK Kinase screen; details: Compound concentration 1.0 uM
[3] = molecular target: Substance-K receptor (Homo sapiens) (UniProt P21452); experiment: Inhibition of Tachykinin NK2 at 10 µM in the Eurofins-Panlabs radioligand binding assay (Eurofins_assay_255600); set-up: ligand concentration 0.5 nM; details: Compound concentration 10.0 uM
[4] = molecular target: Epidermal growth factor receptor (Homo sapiens) (UniProt P00533); experiment: EGFR (ErbB1) Kinase screen; details: Compound concentration 1.0 uM
[5] = molecular target: T2, Tyrosine-protein kinase ITK/TSK (Homo sapiens) (UniProt Q08881); experiment: ITK Kinase screen; details: Compound concentration 1.0 uM
T2 sequence (whole entry): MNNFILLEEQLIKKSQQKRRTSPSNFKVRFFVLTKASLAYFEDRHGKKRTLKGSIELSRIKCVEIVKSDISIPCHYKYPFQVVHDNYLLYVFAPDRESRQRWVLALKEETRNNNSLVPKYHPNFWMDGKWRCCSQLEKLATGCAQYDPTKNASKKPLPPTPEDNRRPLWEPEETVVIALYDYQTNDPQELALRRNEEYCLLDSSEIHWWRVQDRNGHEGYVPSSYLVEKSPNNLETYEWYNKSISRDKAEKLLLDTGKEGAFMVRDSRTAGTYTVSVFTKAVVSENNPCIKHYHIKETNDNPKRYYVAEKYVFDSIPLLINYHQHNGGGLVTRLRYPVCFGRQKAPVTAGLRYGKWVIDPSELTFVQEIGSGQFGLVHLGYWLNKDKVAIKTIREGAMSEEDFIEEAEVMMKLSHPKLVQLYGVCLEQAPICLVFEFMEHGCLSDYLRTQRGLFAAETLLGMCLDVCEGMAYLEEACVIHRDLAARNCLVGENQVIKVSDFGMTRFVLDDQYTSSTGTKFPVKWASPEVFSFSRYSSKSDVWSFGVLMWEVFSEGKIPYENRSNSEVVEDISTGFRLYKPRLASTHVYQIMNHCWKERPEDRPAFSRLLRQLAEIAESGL

[6] = molecular target: T3, Tyrosine-protein kinase TXK (Homo sapiens) (UniProt P42681); experiment: TXK Kinase screen; details: Compound concentration 1.0 uM
T3 sequence (whole entry): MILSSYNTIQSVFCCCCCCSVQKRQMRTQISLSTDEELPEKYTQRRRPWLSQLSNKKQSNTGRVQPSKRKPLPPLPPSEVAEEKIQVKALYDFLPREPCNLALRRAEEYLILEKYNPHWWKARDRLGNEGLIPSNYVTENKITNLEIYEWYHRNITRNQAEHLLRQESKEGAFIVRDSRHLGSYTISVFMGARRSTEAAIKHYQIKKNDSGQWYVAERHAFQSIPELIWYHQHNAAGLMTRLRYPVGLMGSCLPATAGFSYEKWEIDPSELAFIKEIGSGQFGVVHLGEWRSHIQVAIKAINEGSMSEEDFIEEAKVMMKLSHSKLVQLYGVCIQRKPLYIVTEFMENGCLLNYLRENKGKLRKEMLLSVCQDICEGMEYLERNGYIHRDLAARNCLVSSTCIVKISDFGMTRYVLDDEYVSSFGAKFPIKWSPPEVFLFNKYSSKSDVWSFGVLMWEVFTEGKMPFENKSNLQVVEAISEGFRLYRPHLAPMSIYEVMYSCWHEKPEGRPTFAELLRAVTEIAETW

[7] = molecular target: Phosphatidylinositol 4-kinase beta (Homo sapiens) (UniProt Q9UBF8); experiment: PI4KB (PI4K beta) Kinase screen; details: Compound concentration 1.0 uM
[8] = molecular target: Histamine H4 receptor (Homo sapiens) (UniProt Q9H3N8); experiment: Histamine H4 Eurofins-Panlabs radioligand binding assay; details: Compound concentration 10.0 uM
[9] = molecular target: Beta-3 adrenergic receptor (Homo sapiens) (UniProt P13945); details: Compound concentration 10.0 uM
[10] = molecular target: Protein kinase C theta type (Homo sapiens) (UniProt Q04759); experiment: PRKCQ (PKC theta) Kinase screen; details: Compound concentration 1.0 uM
[11] = molecular target: Mitogen-activated protein kinase kinase kinase kinase 4 (Homo sapiens) (UniProt O95819); experiment: MAP4K4 (HGK) Kinase screen; details: Compound concentration 1.0 uM
[12] = molecular target: D(2) dopamine receptor (Homo sapiens) (UniProt P14416); details: Compound concentration 10.0 uM
[13] = molecular target: Tyrosine-protein kinase SYK (Homo sapiens) (UniProt P43405); experiment: SYK Kinase screen; details: Compound concentration 1.0 uM
[14] = molecular target: Dual specificity protein kinase CLK1 (Homo sapiens) (UniProt P49759); experiment: CLK1 Kinase screen; details: Compound concentration 1.0 uM
[15] = molecular target: Serine/threonine-protein kinase MRCK beta (Homo sapiens) (UniProt Q9Y5S2); experiment: CDC42 BPB (MRCKB) Kinase screen; details: Compound concentration 1.0 uM

Measured: inhibition

Serine/threonine-protein kinase MRCK beta (Homo sapiens), sequence (Q9Y5S2 whole entry): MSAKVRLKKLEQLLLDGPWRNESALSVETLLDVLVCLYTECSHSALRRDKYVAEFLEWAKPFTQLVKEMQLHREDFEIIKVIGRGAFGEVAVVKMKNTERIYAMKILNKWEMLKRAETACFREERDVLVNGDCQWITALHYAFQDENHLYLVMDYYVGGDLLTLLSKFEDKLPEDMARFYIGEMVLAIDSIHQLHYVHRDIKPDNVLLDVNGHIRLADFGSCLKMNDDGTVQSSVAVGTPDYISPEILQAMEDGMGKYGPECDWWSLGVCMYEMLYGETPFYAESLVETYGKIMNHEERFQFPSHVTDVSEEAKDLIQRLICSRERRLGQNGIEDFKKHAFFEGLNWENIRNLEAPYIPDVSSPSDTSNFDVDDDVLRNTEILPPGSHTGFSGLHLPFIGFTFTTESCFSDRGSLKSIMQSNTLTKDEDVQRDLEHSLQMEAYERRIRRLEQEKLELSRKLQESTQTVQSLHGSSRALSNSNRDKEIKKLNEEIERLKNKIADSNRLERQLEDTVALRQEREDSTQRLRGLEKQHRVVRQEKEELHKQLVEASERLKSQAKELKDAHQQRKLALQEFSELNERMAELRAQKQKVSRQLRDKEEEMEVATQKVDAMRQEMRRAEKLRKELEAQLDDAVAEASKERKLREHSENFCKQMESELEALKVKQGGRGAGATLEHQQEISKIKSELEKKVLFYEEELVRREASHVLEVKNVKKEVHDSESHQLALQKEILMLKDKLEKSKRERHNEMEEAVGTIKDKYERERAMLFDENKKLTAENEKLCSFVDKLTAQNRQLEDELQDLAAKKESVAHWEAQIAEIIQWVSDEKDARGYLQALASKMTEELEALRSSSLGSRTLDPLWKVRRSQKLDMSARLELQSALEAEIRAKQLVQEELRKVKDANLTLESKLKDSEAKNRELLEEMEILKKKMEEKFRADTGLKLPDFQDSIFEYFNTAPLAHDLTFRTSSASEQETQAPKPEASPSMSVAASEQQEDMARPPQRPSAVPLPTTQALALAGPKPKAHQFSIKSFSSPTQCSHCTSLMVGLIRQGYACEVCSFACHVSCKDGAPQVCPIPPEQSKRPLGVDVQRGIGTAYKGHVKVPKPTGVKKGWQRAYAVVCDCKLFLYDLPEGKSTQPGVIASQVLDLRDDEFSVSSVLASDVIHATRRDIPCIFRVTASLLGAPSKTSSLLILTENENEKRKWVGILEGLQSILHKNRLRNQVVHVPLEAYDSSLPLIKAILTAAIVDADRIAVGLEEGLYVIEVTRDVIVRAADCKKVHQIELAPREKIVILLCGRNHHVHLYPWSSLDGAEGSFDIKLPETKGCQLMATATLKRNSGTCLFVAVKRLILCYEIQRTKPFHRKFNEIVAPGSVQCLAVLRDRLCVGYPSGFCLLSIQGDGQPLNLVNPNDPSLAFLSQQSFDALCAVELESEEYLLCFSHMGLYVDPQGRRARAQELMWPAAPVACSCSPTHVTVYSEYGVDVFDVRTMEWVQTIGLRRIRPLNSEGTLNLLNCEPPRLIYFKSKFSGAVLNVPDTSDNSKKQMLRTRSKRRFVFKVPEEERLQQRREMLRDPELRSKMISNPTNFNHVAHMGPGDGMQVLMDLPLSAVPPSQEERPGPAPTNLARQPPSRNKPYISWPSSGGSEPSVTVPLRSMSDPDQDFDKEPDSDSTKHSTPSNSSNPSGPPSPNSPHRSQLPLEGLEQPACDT
Dual specificity protein kinase CLK1 (Homo sapiens), sequence (P49759 whole entry, looked up): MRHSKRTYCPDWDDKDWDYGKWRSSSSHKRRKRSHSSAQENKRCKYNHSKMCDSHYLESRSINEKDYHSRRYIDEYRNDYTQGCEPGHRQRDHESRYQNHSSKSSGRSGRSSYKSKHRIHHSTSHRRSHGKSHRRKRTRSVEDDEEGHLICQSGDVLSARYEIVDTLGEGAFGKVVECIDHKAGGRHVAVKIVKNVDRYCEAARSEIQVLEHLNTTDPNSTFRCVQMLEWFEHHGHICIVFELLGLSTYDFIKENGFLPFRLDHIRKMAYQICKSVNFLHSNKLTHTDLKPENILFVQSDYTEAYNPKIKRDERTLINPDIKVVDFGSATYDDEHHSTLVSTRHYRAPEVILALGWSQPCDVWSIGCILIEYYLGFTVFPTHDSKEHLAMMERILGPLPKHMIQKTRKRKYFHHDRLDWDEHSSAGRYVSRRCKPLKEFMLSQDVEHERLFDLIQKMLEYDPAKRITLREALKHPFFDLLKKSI
Epidermal growth factor receptor (Homo sapiens), sequence (P00533 whole entry): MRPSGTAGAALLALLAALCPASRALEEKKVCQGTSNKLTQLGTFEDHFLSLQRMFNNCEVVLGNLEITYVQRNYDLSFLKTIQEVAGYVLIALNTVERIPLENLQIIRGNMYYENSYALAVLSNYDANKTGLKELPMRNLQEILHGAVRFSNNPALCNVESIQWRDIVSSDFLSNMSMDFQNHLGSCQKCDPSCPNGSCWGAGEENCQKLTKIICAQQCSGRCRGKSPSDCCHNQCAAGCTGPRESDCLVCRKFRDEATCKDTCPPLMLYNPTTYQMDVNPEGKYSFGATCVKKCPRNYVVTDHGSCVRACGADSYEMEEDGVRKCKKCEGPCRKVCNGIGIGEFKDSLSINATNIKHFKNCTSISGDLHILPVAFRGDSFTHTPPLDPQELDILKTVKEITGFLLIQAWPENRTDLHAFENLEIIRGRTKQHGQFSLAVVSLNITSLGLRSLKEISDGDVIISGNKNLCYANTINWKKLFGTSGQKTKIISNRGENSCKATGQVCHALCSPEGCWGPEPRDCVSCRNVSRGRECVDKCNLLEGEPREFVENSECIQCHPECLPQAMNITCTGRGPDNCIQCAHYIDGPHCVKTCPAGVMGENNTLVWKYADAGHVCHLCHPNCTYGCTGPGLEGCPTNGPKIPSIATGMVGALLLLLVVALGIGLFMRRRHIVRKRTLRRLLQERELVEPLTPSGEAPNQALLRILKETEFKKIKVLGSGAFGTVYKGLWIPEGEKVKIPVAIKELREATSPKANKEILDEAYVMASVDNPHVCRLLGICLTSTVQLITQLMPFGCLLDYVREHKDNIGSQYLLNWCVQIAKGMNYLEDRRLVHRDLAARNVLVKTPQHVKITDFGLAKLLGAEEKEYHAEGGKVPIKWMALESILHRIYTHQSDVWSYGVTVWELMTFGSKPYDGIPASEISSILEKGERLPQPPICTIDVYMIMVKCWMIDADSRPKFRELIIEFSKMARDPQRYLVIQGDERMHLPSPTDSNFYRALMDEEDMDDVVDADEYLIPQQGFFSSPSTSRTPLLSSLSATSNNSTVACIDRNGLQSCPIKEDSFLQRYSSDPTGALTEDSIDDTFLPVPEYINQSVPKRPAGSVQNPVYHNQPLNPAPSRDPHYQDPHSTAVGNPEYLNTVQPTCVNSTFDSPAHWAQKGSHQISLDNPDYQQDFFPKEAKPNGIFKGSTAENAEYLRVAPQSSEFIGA
Substance-K receptor (Homo sapiens), sequence (P21452 whole entry): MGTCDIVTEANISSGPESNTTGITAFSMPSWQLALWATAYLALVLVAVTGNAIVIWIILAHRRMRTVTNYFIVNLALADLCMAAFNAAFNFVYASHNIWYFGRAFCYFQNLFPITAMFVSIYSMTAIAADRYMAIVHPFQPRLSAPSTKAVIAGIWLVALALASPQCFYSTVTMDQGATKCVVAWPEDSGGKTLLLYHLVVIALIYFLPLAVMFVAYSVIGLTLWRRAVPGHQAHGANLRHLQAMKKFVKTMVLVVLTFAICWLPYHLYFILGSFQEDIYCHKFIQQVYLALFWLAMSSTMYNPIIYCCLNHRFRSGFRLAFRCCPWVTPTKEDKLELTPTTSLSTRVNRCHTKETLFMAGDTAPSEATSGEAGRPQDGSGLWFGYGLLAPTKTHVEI
Phosphatidylinositol 4-kinase beta (Homo sapiens), sequence (Q9UBF8 2-816 limits assumed): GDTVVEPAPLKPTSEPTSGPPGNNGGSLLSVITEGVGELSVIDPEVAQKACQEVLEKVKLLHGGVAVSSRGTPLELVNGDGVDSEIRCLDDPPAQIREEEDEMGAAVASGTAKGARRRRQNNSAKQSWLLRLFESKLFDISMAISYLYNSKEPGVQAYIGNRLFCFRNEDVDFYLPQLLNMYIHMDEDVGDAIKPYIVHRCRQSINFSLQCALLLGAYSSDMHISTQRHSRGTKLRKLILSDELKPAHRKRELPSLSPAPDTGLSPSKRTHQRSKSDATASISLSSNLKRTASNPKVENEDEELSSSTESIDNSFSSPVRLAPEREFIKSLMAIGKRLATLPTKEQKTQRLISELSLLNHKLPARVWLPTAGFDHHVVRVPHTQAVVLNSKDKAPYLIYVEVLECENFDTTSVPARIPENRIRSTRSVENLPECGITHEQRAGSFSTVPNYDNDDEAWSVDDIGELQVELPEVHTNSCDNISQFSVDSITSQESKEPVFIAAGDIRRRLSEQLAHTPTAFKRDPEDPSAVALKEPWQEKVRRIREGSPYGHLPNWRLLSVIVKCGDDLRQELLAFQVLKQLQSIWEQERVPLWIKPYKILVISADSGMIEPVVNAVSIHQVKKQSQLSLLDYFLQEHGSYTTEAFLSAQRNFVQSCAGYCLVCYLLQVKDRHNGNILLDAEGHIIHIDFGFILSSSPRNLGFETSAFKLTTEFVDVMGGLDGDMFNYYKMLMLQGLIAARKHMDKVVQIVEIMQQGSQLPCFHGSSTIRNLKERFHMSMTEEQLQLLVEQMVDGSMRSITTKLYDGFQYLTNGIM
D(2) dopamine receptor (Homo sapiens), sequence (P14416 whole entry): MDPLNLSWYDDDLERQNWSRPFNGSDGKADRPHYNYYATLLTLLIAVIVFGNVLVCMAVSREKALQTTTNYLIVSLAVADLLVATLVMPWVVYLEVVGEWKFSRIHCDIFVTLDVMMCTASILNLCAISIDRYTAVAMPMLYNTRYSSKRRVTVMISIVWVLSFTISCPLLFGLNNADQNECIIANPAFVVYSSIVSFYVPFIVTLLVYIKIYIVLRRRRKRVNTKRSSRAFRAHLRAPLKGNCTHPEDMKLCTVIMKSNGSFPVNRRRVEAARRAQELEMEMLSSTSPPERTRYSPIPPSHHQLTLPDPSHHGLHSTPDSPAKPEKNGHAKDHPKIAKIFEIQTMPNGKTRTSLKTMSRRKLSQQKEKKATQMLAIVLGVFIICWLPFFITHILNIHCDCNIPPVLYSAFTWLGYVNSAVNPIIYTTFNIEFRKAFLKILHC

C[C@@H]1CN(c2cc(-c3n[nH]c4ccc(OC5(C)CC5)cc34)ncn2)C[C@H](C)O1 [MLi-2]
inactive: [1] 21.8% | [2] 5.44% | [3] 27% | [4] -0.77% | [5] 2.04% | [6] 3.11% | [7] 1.46% | [8] -4% | [9] 21% | [10] 2.46% | [11] 17.1% | [12] 11% | [13] 2.84% | [14] 15.7% | [15] 4.34%
